Measured values reported in ChEMBL document CHEMBL3046650, “Hydrogenated and Dichiorinated N-Phthaloyl-L-threonines and Their Dehydrated Phthalimides with Root Growth-promoting Activity for Rice Seedings” (J Pestic Sci, 2000).
Activity calls are given as the source filed them. The rule behind the calls is not given here.

Legend:
[1] = system: Oryza sativa; experiment: Phytotoxicity against Oryza sativa cv. Koshihikari (rice) seedling assessed as shoot growth inhibition; type: organism-based; conditions: in vivo
[2] = system: Lactuca sativa; experiment: Phytotoxicity against Lactuca sativa cv. Gokuwase-CISCO (lettuce) seedling assessed as root necrosis at 1 x 10' -3 M; type: organism-based; conditions: in vivo, 1000 µM
[3] = system: Vigna mungo; experiment: Phytotoxicity against Vigna mungo (black gram) seedling assessed as hypocotyl growth inhibition at 1 x 10' -6 to 1 x 10' -3 M; type: organism-based; conditions: in vivo
[4] = system: Vigna mungo; experiment: Phytotoxicity against Vigna mungo (black gram) seedling assessed as root growth inhibition at 1 x 10' -6 to 1 x 10' -3 M; type: organism-based; conditions: in vivo
[5] = system: Lactuca sativa; experiment: Growth promoting activity in Lactuca sativa cv. Gokuwase-CISCO (lettuce) seedling root at 1 x 10' -6 to 1 x 10' -3 M; type: functional, organism-based
[6] = system: Brassica rapa subsp. pekinensis; experiment: Phytotoxicity against Brassica rapa subsp. pekinensis (Chinese cabbage) cv. Kinshu seedling assessed as root growth inhibition at 1 x 10' -6 to 1 x 10' -3 M; type: organism-based; conditions: in vivo
[7] = system: Oryza sativa; experiment: Growth promoting activity in Oryza sativa cv. Koshihikari (rice) seedling shoot at 1 x 10' -5 M; type: functional, organism-based
[8] = system: Vigna mungo; experiment: Growth promoting activity in Vigna mungo (black gram) seedling hypocotyl at 1 x 10' -6 to 1 x 10' -3 M; type: functional, organism-based
[9] = system: Brassica rapa subsp. pekinensis; experiment: Growth promoting activity in Brassica rapa subsp. pekinensis (Chinese cabbage) cv. Kinshu seedling root at 1 x 10' -6 to 1 x 10' -3 M; type: functional, organism-based
[10] = system: Oryza sativa; experiment: Phytotoxicity against Oryza sativa cv. Koshihikari (rice) seedling assessed as root necrosis at 1 x 10' -3 M; type: organism-based; conditions: in vivo, 1000 µM
[11] = system: Lactuca sativa; experiment: Growth promoting activity in Lactuca sativa cv. Gokuwase-CISCO (lettuce) seedling hypocotyl at 1 x 10' -6 to 1 x 10' -3 M; type: functional, organism-based
[12] = system: Oryza sativa; experiment: Growth promoting activity in Oryza sativa cv. Koshihikari (rice) seedling root at 1 x 10' -5 M relative to control; type: functional, organism-based
[13] = system: Lactuca sativa; experiment: Phytotoxicity against Lactuca sativa cv. Gokuwase-CISCO (lettuce) seedling assessed as hypocotyl necrosis at 1 x 10' -3 M; type: organism-based; conditions: in vivo, 1000 µM
[14] = system: Vigna mungo; experiment: Growth promoting activity in Vigna mungo (black gram) seedling root at 1 x 10' -6 to 1 x 10' -3 M; type: functional, organism-based
[15] = system: Oryza sativa; experiment: Growth promoting activity in Oryza sativa cv. Koshihikari (rice) seedling root at 1 x 10' -4 M relative to control; type: functional
[16] = system: Brassica rapa subsp. pekinensis; experiment: Growth promoting activity in Brassica rapa subsp. pekinensis (Chinese cabbage) cv. Kinshu seedling root at 1 x 10' -3 M; type: functional, organism-based
[17] = system: Lactuca sativa; experiment: Phytotoxicity against Lactuca sativa cv. Gokuwase-CISCO (lettuce) seedling assessed as hypocotyl growth inhibition at 1 x 10' -3 M; type: organism-based; conditions: in vivo, 1000 µM
[18] = system: Brassica rapa subsp. pekinensis; experiment: Phytotoxicity against Brassica rapa subsp. pekinensis (Chinese cabbage) cv. Kinshu seedling assessed as root growth inhibition at 1 x 10' -4 M; type: organism-based; conditions: in vivo, 100 µM
[19] = system: Oryza sativa; experiment: Phytotoxicity against Oryza sativa cv. Koshihikari (rice) seedling assessed as root growth inhibition at 1 x 10' -3 M; type: organism-based; conditions: in vivo, 1000 µM

C/C=C(/C(=O)O)N1C(=O)[C@H]2CCCC[C@H]2C1=O
Activity [1]: Non-toxic | Activity [2]: Toxic | Activity [3]: Non-toxic | Activity [4]: Non-toxic | Activity [5]: inactive | Activity [6]: Non-toxic | Activity [7]: Active | Activity [8]: inactive | Activity [9]: inactive | Activity [10]: Non-toxic | Activity [11]: inactive | Activity [12]: inactive | Activity [13]: Toxic | Activity [14]: inactive | fold change (FC) [15]: 2.1

C/C=C(/C(=O)O)N1C(=O)[C@H]2CC=CC[C@H]2C1=O
Activity [16]: Active | Activity [2]: Toxic | Activity [3]: Non-toxic | Activity [4]: Non-toxic | Activity [5]: inactive | Activity [8]: inactive | Activity [10]: Non-toxic | Activity [11]: inactive | Activity [12]: inactive | Activity [14]: inactive | fold change (FC) [15]: 2.1 | Activity [17]: Toxic

C/C=C(/C(=O)O)N1C(=O)C2=C(CCCC2)C1=O
Activity [16]: Active | Activity [2]: Toxic | Activity [3]: Non-toxic | Activity [4]: Non-toxic | Activity [5]: inactive | Activity [7]: Active | Activity [8]: inactive | Activity [10]: Toxic | Activity [11]: inactive | Activity [18]: Toxic | Activity [12]: inactive | Activity [14]: inactive | fold change (FC) [15]: 2.1 | Activity [17]: Toxic

C/C=C(/C(=O)O)N1C(=O)c2ccccc2C1=O
Activity [16]: Active | Activity [2]: Toxic | Activity [3]: Non-toxic | Activity [4]: Non-toxic | Activity [5]: inactive | Activity [8]: inactive | Activity [11]: inactive | Activity [12]: Active | Activity [14]: inactive | Activity [19]: Toxic | fold change (FC) [15]: 2.1 | Activity [17]: Toxic

C/C=C(/C(=O)O)N1C(=O)[C@H]2CCCC[C@@H]2C1=O (relative stereo)
Activity [1]: Non-toxic | Activity [2]: Toxic | Activity [3]: Non-toxic | Activity [4]: Non-toxic | Activity [5]: inactive | Activity [6]: Non-toxic | Activity [8]: inactive | Activity [9]: inactive | Activity [10]: Non-toxic | Activity [11]: inactive | Activity [12]: inactive | Activity [14]: inactive | fold change (FC) [15]: 2.1 | Activity [17]: Toxic

C/C=C(/C(=O)O)N1C(=O)c2cc(Cl)c(Cl)cc2C1=O [4,5-Cl2P-BTEA]
Activity [2]: Toxic | Activity [3]: Non-toxic | Activity [4]: Non-toxic | Activity [5]: inactive | Activity [6]: Non-toxic | Activity [8]: inactive | Activity [9]: inactive | Activity [10]: Non-toxic | Activity [11]: inactive | Activity [12]: Active | Activity [13]: Toxic | Activity [14]: inactive | fold change (FC) [15]: 2.1

C[C@@H](O)[C@@H](C(=O)O)N1C(=O)[C@H]2CCCC[C@H]2C1=O [CIS-1,2,3,4,5,6-HEXAHYDROPHTHALOYL-L-THREONINE]
Activity [1]: Non-toxic | Activity [2]: Toxic | Activity [3]: Non-toxic | Activity [4]: Non-toxic | Activity [5]: inactive | Activity [6]: Non-toxic | Activity [7]: Active | Activity [8]: inactive | Activity [9]: inactive | Activity [10]: Non-toxic | Activity [11]: inactive | Activity [12]: inactive | Activity [13]: Toxic | Activity [14]: inactive | fold change (FC) [15]: 1.6

C[C@@H](O)[C@@H](C(=O)O)N1C(=O)[C@H]2CC=CC[C@H]2C1=O [CIS-1,2,3,6-TETRAHYDROPHTHALOYL-L-THREONINE]
Activity [2]: Toxic | Activity [3]: Non-toxic | Activity [4]: Non-toxic | Activity [5]: inactive | Activity [6]: Non-toxic | Activity [8]: inactive | Activity [9]: inactive | Activity [10]: Non-toxic | Activity [11]: inactive | Activity [12]: inactive | Activity [13]: Toxic | Activity [14]: inactive | fold change (FC) [15]: 1.6

C[C@@H](O)[C@@H](C(=O)O)N1C(=O)c2ccccc2C1=O [N PHTHALOYL-L-THREONINE]
Activity [2]: Toxic | Activity [3]: Non-toxic | Activity [4]: Non-toxic | Activity [5]: inactive | Activity [6]: Non-toxic | Activity [8]: inactive | Activity [9]: inactive | Activity [11]: inactive | Activity [12]: Active | Activity [14]: inactive | Activity [19]: Toxic | fold change (FC) [15]: 1.6 | Activity [17]: Toxic

C[C@@H](O)[C@@H](C(=O)O)N1C(=O)C2=C(CCCC2)C1=O [N-(3,4,5,6-TETRAHYDROPHTHALOYL)-L-THREONINE]
Activity [2]: Toxic | Activity [3]: Non-toxic | Activity [4]: Non-toxic | Activity [5]: inactive | Activity [6]: Non-toxic | Activity [7]: Active | Activity [8]: inactive | Activity [9]: inactive | Activity [10]: Toxic | Activity [11]: inactive | Activity [12]: inactive | Activity [14]: inactive | fold change (FC) [15]: 1.6 | Activity [17]: Toxic

C[C@@H](O)[C@@H](C(=O)O)N1C(=O)c2cc(Cl)c(Cl)cc2C1=O [N-(4,5-DICHLOROPHTHALOYL)-L-THREONINE]
Activity [2]: Toxic | Activity [3]: Non-toxic | Activity [4]: Non-toxic | Activity [5]: inactive | Activity [6]: Non-toxic | Activity [8]: inactive | Activity [9]: inactive | Activity [10]: Non-toxic | Activity [11]: inactive | Activity [12]: Active | Activity [13]: Toxic | Activity [14]: inactive | fold change (FC) [15]: 1.6

C[C@@H](O)[C@@H](C(=O)O)N1C(=O)[C@H]2CCCC[C@@H]2C1=O [TRANS-1,2,3,4,5,6-HEXAHYDROPHTHALOYL-L-THREONINE]
Activity [1]: Non-toxic | Activity [2]: Toxic | Activity [3]: Non-toxic | Activity [4]: Non-toxic | Activity [5]: inactive | Activity [6]: Non-toxic | Activity [8]: inactive | Activity [9]: inactive | Activity [10]: Non-toxic | Activity [11]: inactive | Activity [12]: inactive | Activity [14]: inactive | fold change (FC) [15]: 1.6 | Activity [17]: Toxic
